Experimental data as given in US9926276B2, “Substituted benzamides with activity towards EP4 receptors” (DRACONIS PHARMA, S.L., priority 2013, dated 2018).

These molecules were tested against T1, human EP4 receptor (Homo sapiens, UniProt P35408) (assay: Measurement of cAMP responses by Homogeneous Time Resolved Fluorescence (Test 2)). Settings: at 10 μM; PGE2 1 nM, HEK-293 cells stably expressing human EP4.
T1 sequence (P35408 whole entry): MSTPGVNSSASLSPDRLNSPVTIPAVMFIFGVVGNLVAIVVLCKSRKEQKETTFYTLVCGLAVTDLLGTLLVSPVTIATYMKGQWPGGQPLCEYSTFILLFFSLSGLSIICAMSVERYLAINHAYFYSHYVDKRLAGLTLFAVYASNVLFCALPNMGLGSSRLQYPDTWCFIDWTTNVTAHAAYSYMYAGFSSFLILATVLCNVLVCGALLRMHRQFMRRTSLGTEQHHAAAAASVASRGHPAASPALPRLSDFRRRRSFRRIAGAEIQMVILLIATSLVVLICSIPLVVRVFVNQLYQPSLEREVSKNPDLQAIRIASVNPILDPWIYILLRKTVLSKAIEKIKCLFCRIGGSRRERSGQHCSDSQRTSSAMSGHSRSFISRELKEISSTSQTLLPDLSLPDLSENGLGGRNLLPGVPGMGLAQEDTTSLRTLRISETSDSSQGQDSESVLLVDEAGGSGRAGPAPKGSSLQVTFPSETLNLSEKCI
Assay type: cell-based
Design: expressed in transfected cells
Method: Test 2: Measurement of cAMP Responses by Homogeneous Time Resolved Fluorescence
cAMP measurements on HEK-293 cells that stably expressed human EP4 receptors were performed by using a system based on Homogeneous Time Resolved Fluorescense (HTRF). This technology allows the direct measurement of cAMP in living cells. The principle of this assay is based on competition between cAMP produced by cells and cAMP-d2 conjugate for the binding with monoclonal anti-cAMP-cryptate conjugate. The HTRF cAMP kit from CisBio was used according to the manufacturer's directions. The experimental procedure was performed as stated below.
Suspended cells (30,000 cells per well) were added to 96-well culture plates in 30 μl of Optimem supplemented with 500 μM IBMX. Compounds were then added in 10 μl of stimulation buffer and incubated at 25° C. for 30 minutes followed by 10 μl of PGE2 to a final concentration of 1 nM. After 30 minutes at 25° C., the reaction was stopped lysing the cells with a mixture of 25 μl of cryptate and 25 μl of cAMP-d2 prepared in the lysis buffer supplied by the manufacturer. Plates were incubated for an additional hour at room temperature and read at 665 nm/620 nm using an UltraEvolution Plate reader (Tecan).
Antagonist percentage inhibition was calculated relating compounds activity to the 0% inhibition of the wells incubated with 1 nM PGE2 alone and 100% inhibition of the wells incubated with 1 nM PGE2 plus 1 μM of the reference antagonist.
For `COc1cccc(-c2ccc(Cl)c(C(=O)Nc3c(C)cc(C(=O)O)cc3C)c2)c1` [Example 1, 4-(4-Chloro-3′-methoxybiphenyl-3-ylcarboxamido)-3,5-dimethylbenzoic acid], the “Results of Test 2 (Functional assay, antagonist % inh)” value was “$ (% inh >75)”. `Cc1cc(C(=O)O)cc(C)c1NC(=O)c1cc(-c2cccc(CO)c2)ccc1Cl` [Example 2, 4-(4-Chloro-3′-(hydroxymethyl)biphenyl-3-ylcarboxamido)-3,5-dimethylbenzoic acid] was tested, and the “Results of Test 2 (Functional assay, antagonist % inh)” value was “$ (% inh >75)”. `COc1cccc(-c2ccc(C)c(C(=O)Nc3c(C)cc(C(=O)O)cc3C)c2)c1` [Example 3, 4-(3′-Methoxy-4-methylbiphenyl-3-ylcarboxamido)-3,5-dimethylbenzoic acid] was tested, and the “Results of Test 2 (Functional assay, antagonist % inh)” value was “$ (% inh >75)”.

Each molecule was assayed against T1, human EP4 receptor (assay: Human EP4 receptor radioligand binding assay (Test 1)). Settings: [3H]-PGE2 1 nM, transfected HEK-293 cell membranes, read-out: Results of Test 1 (Binding assay, % inh).
Design: expressed in transfected cells; host or cells: HEK-293 cell membranes
Method: Test 1: Human EP4 Receptor Radioligand Binding Assay
To investigate binding properties of EP4 receptor ligands to human EP4 receptor, transfected HEK-293 cell membranes and [3H]-PGE2 (Perkin Elmer) were used. In 96-well plates the assay was carried out with a total reaction volume of 250 μl, containing 25 μl of membrane suspension (30 μg protein/well), 25 μl of [3H]-PGE2 (1 nM) in either absence or presence of 25 μl of either buffer or PGE2 (10 μM) for total and non-specific binding, respectively. Binding buffer contained 25 mM MES, 10 mM MgCl2 and 1 mM EDTA at pH 6.0. Plates were incubated at 25° C. for 120 minutes. After the incubation period, 200 μl of incubate were transferred to MultiScreen HTS, FB plates (Millipore), filtered and plates were washed 6 times with ice-cold 10 mM MES, 0.01% BSA at pH 6.0. Filters were dried and counted in a MicroBeta scintillation counter (Perkin-Elmer) using EcoScint liquid scintillation cocktail.
Percentage inhibition was calculated relating compounds activity to the 0% inhibition of the wells incubated with 1 nM [3H]-PGE2 alone (total binding) and 100% inhibition of the wells incubated with 1 nM [3H]-PGE2 plus 10 μM PGE2 (non-specific binding).
With `CC(C)COc1ccc(Cl)c(C(=O)Nc2ccc(C(=O)O)cc2Cl)c1` [Example 26, 3-Chloro-4-(2-chloro-5-isobutoxybenzamido)benzoic acid] the inhibition at 10 µM was greater than 75%. `Cc1cc(C(=O)O)cc(Cl)c1NC(=O)c1cc(OCC(C)C)ccc1Cl` [Example 27, 3-Chloro-4-(2-chloro-5-isobutoxybenzamido)-5-methylbenzoic acid] showed an inhibition at 10 µM greater than 75%. For `COc1cc(C(=O)O)ccc1NC(=O)c1cc(OCC(C)C)ccc1Cl` [Example 28, 4-(2-Chloro-5-isobutoxybenzamido)-3-methoxybenzoic acid], the inhibition at 10 µM was greater than 75%. Molecule `O=C(O)c1cc(Cl)c(NC(=O)c2cc(OCc3ccccc3)ccc2Cl)c(Cl)c1` [Example 29, 4-(5-(Benzyloxy)-2-chlorobenzamido)-3,5-dichlorobenzoic acid] has an inhibition at 10 µM greater than 75%. `CC(C)Oc1ccc(Cl)c(C(=O)Nc2c(Cl)cc(C(=O)O)cc2Cl)c1` [Example 30, 3,5-Dichloro-4-(2-chloro-5-isopropoxybenzamido)benzoic acid] was tested, and the inhibition at 10 µM was greater than 75%. `COc1ccc(Cl)c(C(=O)Nc2c(Cl)cc(C(=O)O)cc2Cl)c1` [Example 31, 3,5-Dichloro-4-(2-chloro-5-methoxybenzamido)benzoic acid] gave an inhibition at 10 µM greater than 75%. Work on `O=C(O)c1cc(Cl)c(NC(=O)c2cc(OCC3CCC3)ccc2Cl)c(Cl)c1` [Example 32, 3,5-Dichloro-4-(2-chloro-5-(cyclobutylmethoxy)benzamido)benzoic acid] yielded an inhibition at 10 µM greater than 75%. `CCOc1ccc(Cl)c(C(=O)Nc2c(Cl)cc(C(=O)O)cc2Cl)c1` [Example 33, 3,5-Dichloro-4-(2-chloro-5-ethoxybenzamido)benzoic acid] was tested, and the inhibition at 10 µM was greater than 75%. For `CC(C)(C)COc1ccc(Cl)c(C(=O)Nc2c(Cl)cc(C(=O)O)cc2Cl)c1` [Example 34, 3,5-Dichloro-4-(2-chloro-5-(neopentyloxy)benzamido)benzoic acid], the inhibition at 10 µM was greater than 75%. With `O=C(Nc1c(F)c(F)c(C(=O)O)c(F)c1F)c1cc(OCc2ccc(F)cc2F)ccc1Cl` [Example 37, 4-(2-Chloro-5-(2,4-difluorobenzyloxy)benzamido)-2,3,5,6-tetrafluorobenzoic acid] the inhibition at 10 µM was 45 to 75%. Work on `Cc1ccc(C(=O)O)cc1NC(=O)c1cc(-c2nccc(C(F)(F)F)n2)ccc1Cl` [Example 43, 3-(2-Chloro-5-(4-(trifluoromethyl)pyrimidin-2-yl)benzamido)-4-methylbenzoic acid] yielded an inhibition at 10 µM greater than 75%. `Cc1ccc(C(=O)O)cc1NC(=O)c1cc(OCC(C)C)ccc1Cl` [Example 44, 3-(2-Chloro-5-isobutoxybenzamido)-4-methylbenzoic acid] showed an inhibition at 10 µM greater than 75%. `CC(C)COc1ccc(Cl)c(C(=O)Nc2c(Cl)cc(C(=O)O)cc2Cl)n1` [Example 49, 3,5-Dichloro-4-(3-chloro-6-isobutoxypicolinamido)benzoic acid] was tested, and the inhibition at 10 µM was greater than 75%. `O=C(O)c1cc(Cl)c(NC(=O)c2nc(NCC3CC3)ccc2Cl)c(Cl)c1` [Example 50, 3,5-Dichloro-4-(3-chloro-6-(cyclopropylmethylamino)picolinamido)benzoic acid] gave an inhibition at 10 µM greater than 75%. Molecule `O=C(O)c1cc(Cl)c(NC(=O)c2nc(NC3CCCC3)ccc2Cl)c(Cl)c1` [Example 51, 3,5-Dichloro-4-(3-chloro-6-(cyclopentylamino)picolinamido)benzoic acid] has an inhibition at 10 µM greater than 75%. Molecule `COCCN(C)c1ccc(Cl)c(C(=O)Nc2c(Cl)cc(C(=O)O)cc2Cl)n1` [Example 53, 3,5-Dichloro-4-(3-chloro-6-((2-methoxyethyl)(methyl)amino)-picolinamido)benzoic acid] has an inhibition at 10 µM greater than 75%. `CCCCN(C)c1ccc(Cl)c(C(=O)Nc2c(Cl)cc(C(=O)O)cc2Cl)n1` [Example 54, 4-(6-(Butyl(methyl)amino)-3-chloropicolinamido)-3,5-dichlorobenzoic acid] showed an inhibition at 10 µM greater than 75%. `CCN(CC)c1ccc(Cl)c(C(=O)Nc2c(Cl)cc(C(=O)O)cc2Cl)n1` [Example 55, 3,5-Dichloro-4-(3-chloro-6-(diethylamino)picolinamido)benzoic acid] showed an inhibition at 10 µM greater than 75%. Molecule `CCCNc1ccc(Cl)c(C(=O)Nc2c(Cl)cc(C(=O)O)cc2Cl)n1` [Example 56, 3,5-Dichloro-4-(3-chloro-6-(propylamino)picolinamido)benzoic acid] has an inhibition at 10 µM greater than 75%. With `Cc1ccc(CC2CCCCC2)cc1C(=O)Nc1c(Cl)cc(C(=O)O)cc1Cl` [Example 61, 3,5-Dichloro-4-(5-(cyclohexylmethyl)-2-methylbenzamido)benzoic acid] the inhibition at 10 µM was greater than 75%. `O=C(O)c1cc(Cl)c(NC(=O)c2cc(Cc3ccccc3)ccc2Cl)c(Cl)c1` [Example 62, 4-(5-Benzyl-2-chlorobenzamido)-3,5-dichlorobenzoic acid] showed an inhibition at 10 µM greater than 75%. In the case of `CC(C)Cc1ccc(Cl)c(C(=O)Nc2c(Cl)cc(C(=O)O)cc2Cl)c1` [Example 63, 3,5-Dichloro-4-(2-chloro-5-isobutylbenzamido)-benzoic acid], the inhibition at 10 µM is reported as greater than 75%. In the case of `CCN(C(=O)c1cc(OCC(C)C)ccc1Cl)c1c(Cl)cc(C(=O)O)cc1Cl` [Example 66, 3,5-Dichloro-4-(2-chloro-5-isobutoxy-N-ethylbenzamido)benzoic acid], the inhibition at 10 µM is reported as greater than 75%. In the case of `CC(C)COc1ccc(Cl)c(C(=O)N(CC(C)C)c2c(Cl)cc(C(=O)O)cc2Cl)c1` [Example 67, 3,5-Dichloro-4-(2-chloro-5-isobutoxy-N-isobutylbenzamido)benzoic acid], the inhibition at 10 µM is reported as greater than 75%. With `CCN(C(=O)c1cc(OCc2ccc(F)cc2F)ccc1Cl)c1c(Cl)cc(C(=O)O)cc1Cl` [Example 69, 3,5-Dichloro-4-(2-chloro-5-(2,4-difluorobenzyloxy)-N-ethylbenzamido)benzoic acid] the inhibition at 10 µM was greater than 75%. `CCN(C(=O)c1cc(OCc2ccc(Cl)cc2F)ccc1Cl)c1c(Cl)cc(C(=O)O)cc1Cl` [Example 70, 3,5-Dichloro-4-(2-chloro-5-(4-chloro-2-fluorobenzyloxy)-N-ethylbenzamido)benzoic acid] showed an inhibition at 10 µM greater than 75%. In the case of `Cc1ccc(C(=O)O)cc1NC(=O)c1cc(OCc2ccccc2)ccc1Cl` [Example 71, Sodium 3-(5-(benzyloxy)-2-chlorobenzamido)-4-methylbenzoate], the inhibition at 10 µM is reported as greater than 75%.

Same assay, conditions: at 10 μM; [3H]-PGE2 1 nM, transfected HEK-293 cell membranes
In the case of `COc1cccc(-c2ccc(Cl)c(C(=O)Nc3c(C)cc(C(=O)O)cc3C)c2)c1` [Example 1, 4-(4-Chloro-3′-methoxybiphenyl-3-ylcarboxamido)-3,5-dimethylbenzoic acid], the “Results of Test 1 (Binding assay, % inh)” value is reported as “# (% inh >75)”. With `Cc1cc(C(=O)O)cc(C)c1NC(=O)c1cc(-c2cccc(CO)c2)ccc1Cl` [Example 2, 4-(4-Chloro-3′-(hydroxymethyl)biphenyl-3-ylcarboxamido)-3,5-dimethylbenzoic acid] the “Results of Test 1 (Binding assay, % inh)” value was “# (% inh >75)”. `COc1cccc(-c2ccc(C)c(C(=O)Nc3c(C)cc(C(=O)O)cc3C)c2)c1` [Example 3, 4-(3′-Methoxy-4-methylbiphenyl-3-ylcarboxamido)-3,5-dimethylbenzoic acid] was tested, and the “Results of Test 1 (Binding assay, % inh)” value was “# (% inh >75)”. For `Cc1c(NC(=O)c2cc(-c3cccc(Cl)c3)ccc2Cl)cccc1C(=O)O` [Example 39, 3-(3′,4-Dichlorobiphenyl-3-ylcarboxamido)-2-methylbenzoic acid], the “Results of Test 1 (Binding assay, % inh)” value was “# (% inh >75)”. `Cc1ccc(C(=O)O)cc1NC(=O)c1cc(-c2cccc(Cl)c2)ccc1Cl` [Example 40, 3-(3′,4-Dichlorobiphenyl-3-ylcarboxamido)-4-methylbenzoic acid] was tested, and the “Results of Test 1 (Binding assay, % inh)” value was “# (% inh >75)”. With `O=C(O)c1ccc(Cl)c(NC(=O)c2cc(-c3cccc(Cl)c3)ccc2Cl)c1` [Example 41, 4-Chloro-3-(3′,4-dichlorobiphenyl-3-ylcarboxamido)benzoic acid] the “Results of Test 1 (Binding assay, % inh)” value was “# (% inh >75)”.
